Assay results: the NIST ThermoML archive (doi:10.1021/je8004134)
Several values for one entry are separate records, joined by “and”; a condition that tells them apart may be missing. Identical values can stand only once. ± gives the expanded uncertainty stated by the source.

Columns and labels:
[1] = an = ratio of the nth substance listed, in mol/kg; settings: 298.15 K, 101 kPa, Liquid; for speed of sound: Sing-around technique in a fixed-path interferometer; for mass density: Vibrating tube method
[2] = 298.15 K, 101 kPa, Liquid

C[S+](C)[O-] [dimethyl sulfoxide] + [Ni+2].[O-][Cl+3]([O-])([O-])[O-].[O-][Cl+3]([O-])([O-])[O-]
speed of sound ([1]; a2 = 0): 1484.1 ± 1.2 m/s | mass density ([1]; a2 = 0): 1095.19 ± 0.37 kg/m3

[Ni+2].[O-][Cl+3]([O-])([O-])[O-].[O-][Cl+3]([O-])([O-])[O-] [nickel perchlorate] + C[S+](C)[O-]
speed of sound ([1]; a1 = 0.01259): 1485 ± 1.2 m/s | speed of sound ([1]; a1 = 0.02515): 1485.8 ± 1.2 m/s | speed of sound ([1]; a1 = 0.03816): 1486.7 ± 1.2 m/s | speed of sound ([1]; a1 = 0.051): 1487.5 ± 1.2 m/s | speed of sound ([1]; a1 = 0.06341): 1488.4 ± 1.2 m/s | speed of sound ([1]; a1 = 0.07675): 1489.2 ± 1.2 m/s | speed of sound ([1]; a1 = 0.08797): 1490 ± 1.2 m/s | speed of sound ([1]; a1 = 0.1004): 1491 ± 1.2 m/s | speed of sound ([1]; a1 = 0.1125): 1491.7 ± 1.2 m/s | speed of sound ([1]; a1 = 0.1251): 1492.6 ± 1.2 m/s | mass density ([1]; a1 = 0.01259): 1097.89 ± 0.37 kg/m3 | mass density ([1]; a1 = 0.02515): 1100.6 ± 0.38 kg/m3 | mass density ([1]; a1 = 0.03816): 1103.4 ± 0.38 kg/m3 | mass density ([1]; a1 = 0.051): 1106.18 ± 0.38 kg/m3 | mass density ([1]; a1 = 0.06341): 1108.88 ± 0.38 kg/m3 | mass density ([1]; a1 = 0.07675): 1111.79 ± 0.38 kg/m3 | mass density ([1]; a1 = 0.08797): 1114.24 ± 0.38 kg/m3 | mass density ([1]; a1 = 0.1004): 1116.98 ± 0.38 kg/m3 | mass density ([1]; a1 = 0.1125): 1119.67 ± 0.38 kg/m3 | mass density ([1]; a1 = 0.1251): 1122.43 ± 0.38 kg/m3

CC(=O)N(C)C [N,N-dimethylethanamide] + [O-][Cl+3]([O-])([O-])[O-].[O-][Cl+3]([O-])([O-])[O-].[Zn+2]
speed of sound ([1]; a2 = 0): 1455.4 ± 1.2 m/s | mass density ([1]; a2 = 0): 936.15 ± 0.31 kg/m3

C[S+](C)[O-] [dimethyl sulfoxide] + [Cl][Mn][Cl]
speed of sound ([1]; a2 = 0): 1484.1 ± 1.2 m/s | mass density ([1]; a2 = 0): 1095.19 ± 0.33 kg/m3

[O-][Cl+3]([O-])([O-])[O-].[O-][Cl+3]([O-])([O-])[O-].[Zn+2] [zinc perchlorate] + CC(=O)N(C)C
speed of sound ([1]; a1 = 0.04286): 1460.8 ± 1.2 m/s | speed of sound ([1]; a1 = 0.08313): 1464.9 ± 1.2 m/s | speed of sound ([1]; a1 = 0.1231): 1469 ± 1.2 m/s | speed of sound ([1]; a1 = 0.1625): 1473.2 ± 1.2 m/s | speed of sound ([1]; a1 = 0.2013): 1477.5 ± 1.2 m/s | speed of sound ([1]; a1 = 0.2396): 1481.9 ± 1.2 m/s | speed of sound ([1]; a1 = 0.2771): 1486.3 ± 1.2 m/s | speed of sound ([1]; a1 = 0.3148): 1490.8 ± 1.2 m/s | mass density ([1]; a1 = 0.04286): 945.119 ± 0.31 kg/m3 | mass density ([1]; a1 = 0.08313): 954.115 ± 0.32 kg/m3 | mass density ([1]; a1 = 0.1231): 963.055 ± 0.31 kg/m3 | mass density ([1]; a1 = 0.1625): 971.852 ± 0.31 kg/m3 | mass density ([1]; a1 = 0.2013): 980.513 ± 0.31 kg/m3 | mass density ([1]; a1 = 0.2396): 989.07 ± 0.3 kg/m3 | mass density ([1]; a1 = 0.2771): 997.457 ± 0.3 kg/m3 | mass density ([1]; a1 = 0.3148): 1005.87 ± 0.3 kg/m3

C[S+](C)[O-] [dimethyl sulfoxide] + [Cl][Ni][Cl]
speed of sound ([1]; a2 = 0): 1484.1 ± 1.2 m/s | mass density ([1]; a2 = 0): 1095.19 ± 0.34 kg/m3

[Co+2].[O-][Cl+3]([O-])([O-])[O-].[O-][Cl+3]([O-])([O-])[O-] [cobalt(II) perchlorate] + CC(=O)N(C)C
speed of sound ([1]; a1 = 0.029): 1459.3 ± 1.2 m/s | speed of sound ([1]; a1 = 0.04235): 1461 ± 1.2 m/s | speed of sound ([1]; a1 = 0.05501): 1462.7 ± 1.2 m/s | speed of sound ([1]; a1 = 0.08591): 1466.7 ± 1.2 m/s | speed of sound ([1]; a1 = 0.1144): 1470.4 ± 1.2 m/s | speed of sound ([1]; a1 = 0.1415): 1474 ± 1.2 m/s | speed of sound ([1]; a1 = 0.1692): 1477.8 ± 1.2 m/s | speed of sound ([1]; a1 = 0.1973): 1481.6 ± 1.2 m/s | speed of sound ([1]; a1 = 0.2214): 1484.9 ± 1.2 m/s | mass density ([1]; a1 = 0.029): 942.693 ± 0.32 kg/m3 | mass density ([1]; a1 = 0.04235): 945.675 ± 0.32 kg/m3 | mass density ([1]; a1 = 0.05501): 948.505 ± 0.32 kg/m3 | mass density ([1]; a1 = 0.08591): 955.413 ± 0.32 kg/m3 | mass density ([1]; a1 = 0.1144): 961.778 ± 0.31 kg/m3 | mass density ([1]; a1 = 0.1415): 967.838 ± 0.31 kg/m3 | mass density ([1]; a1 = 0.1692): 974.036 ± 0.31 kg/m3 | mass density ([1]; a1 = 0.1973): 980.3 ± 0.31 kg/m3 | mass density ([1]; a1 = 0.2214): 985.701 ± 0.31 kg/m3

[Cl][Mn][Cl] [manganese chloride] + CC(=O)N(C)C
speed of sound ([1]; a1 = 0.05753): 1458.5 ± 1.2 m/s | speed of sound ([1]; a1 = 0.1146): 1461.2 ± 1.2 m/s | speed of sound ([1]; a1 = 0.1691): 1463.8 ± 1.2 m/s | speed of sound ([1]; a1 = 0.222): 1466.5 ± 1.2 m/s | speed of sound ([1]; a1 = 0.2756): 1469.4 ± 1.2 m/s | speed of sound ([1]; a1 = 0.3266): 1472.2 ± 1.2 m/s | speed of sound ([1]; a1 = 0.3813): 1475.5 ± 1.2 m/s | speed of sound ([1]; a1 = 0.433): 1478.6 ± 1.2 m/s | mass density ([1]; a1 = 0.05753): 942.406 ± 0.25 kg/m3 | mass density ([1]; a1 = 0.1146): 948.611 ± 0.25 kg/m3 | mass density ([1]; a1 = 0.1691): 954.924 ± 0.25 kg/m3 | mass density ([1]; a1 = 0.222): 961.136 ± 0.25 kg/m3 | mass density ([1]; a1 = 0.2756): 967.302 ± 0.25 kg/m3 | mass density ([1]; a1 = 0.3266): 973.327 ± 0.24 kg/m3 | mass density ([1]; a1 = 0.3813): 979.1 ± 0.24 kg/m3 | mass density ([1]; a1 = 0.433): 984.866 ± 0.24 kg/m3

CC(=O)N(C)C [N,N-dimethylethanamide] + [Co+2].[O-][Cl+3]([O-])([O-])[O-].[O-][Cl+3]([O-])([O-])[O-]
speed of sound ([1]; a2 = 0): 1455.4 ± 1.2 m/s | mass density ([1]; a2 = 0): 936.233 ± 0.32 kg/m3

[O-][Cl+3]([O-])([O-])[O-].[O-][Cl+3]([O-])([O-])[O-].[Zn+2] [zinc perchlorate] + C[S+](C)[O-]
speed of sound ([1]; a1 = 0.02918): 1485.7 ± 1.2 m/s | speed of sound ([1]; a1 = 0.03465): 1486 ± 1.2 m/s | speed of sound ([1]; a1 = 0.05104): 1486.9 ± 1.2 m/s | speed of sound ([1]; a1 = 0.06794): 1487.8 ± 1.2 m/s | speed of sound ([1]; a1 = 0.08574): 1488.8 ± 1.2 m/s | speed of sound ([1]; a1 = 0.1022): 1489.7 ± 1.2 m/s | speed of sound ([1]; a1 = 0.119): 1490.7 ± 1.2 m/s | speed of sound ([1]; a1 = 0.1435): 1492.2 ± 1.2 m/s | speed of sound ([1]; a1 = 0.1685): 1493.7 ± 1.2 m/s | mass density ([1]; a1 = 0.02918): 1101.58 ± 0.38 kg/m3 | mass density ([1]; a1 = 0.03465): 1102.78 ± 0.38 kg/m3 | mass density ([1]; a1 = 0.05104): 1106.39 ± 0.38 kg/m3 | mass density ([1]; a1 = 0.06794): 1110.13 ± 0.38 kg/m3 | mass density ([1]; a1 = 0.08574): 1114.1 ± 0.38 kg/m3 | mass density ([1]; a1 = 0.1022): 1117.8 ± 0.39 kg/m3 | mass density ([1]; a1 = 0.119): 1121.58 ± 0.39 kg/m3 | mass density ([1]; a1 = 0.1435): 1127.14 ± 0.39 kg/m3 | mass density ([1]; a1 = 0.1685): 1132.85 ± 0.39 kg/m3

C[S+](C)[O-] [dimethyl sulfoxide]
speed of sound ([2]; Sing-around technique in a fixed-path interferometer): 1484.1 ± 1.2 m/s | mass density ([2]; Vibrating tube method): 1095.19 ± 0.37 kg/m3 and 1095.2 ± 0.38 kg/m3 and 1095.19 ± 0.33 kg/m3

CC(=O)N(C)C [N,N-dimethylethanamide] + [Cl][Mn][Cl]
speed of sound ([1]; a2 = 0): 1455.4 ± 1.2 m/s | mass density ([1]; a2 = 0): 936.233 ± 0.25 kg/m3

C[S+](C)[O-] [dimethyl sulfoxide] + [Cu+2].[O-][Cl+3]([O-])([O-])[O-].[O-][Cl+3]([O-])([O-])[O-]
speed of sound ([1]; a2 = 0): 1484.1 ± 1.2 m/s | mass density ([1]; a2 = 0): 1095.2 ± 0.38 kg/m3

C[S+](C)[O-] [dimethyl sulfoxide] + [O-][Cl+3]([O-])([O-])[O-].[O-][Cl+3]([O-])([O-])[O-].[Zn+2]
speed of sound ([1]; a2 = 0): 1484.1 ± 1.2 m/s | mass density ([1]; a2 = 0): 1095.2 ± 0.38 kg/m3

[Co+2].[O-][Cl+3]([O-])([O-])[O-].[O-][Cl+3]([O-])([O-])[O-] [cobalt(II) perchlorate] + C[S+](C)[O-]
speed of sound ([1]; a1 = 0.0215): 1485.5 ± 1.2 m/s | speed of sound ([1]; a1 = 0.03236): 1486.2 ± 1.2 m/s | speed of sound ([1]; a1 = 0.04309): 1486.9 ± 1.2 m/s | speed of sound ([1]; a1 = 0.05528): 1487.7 ± 1.2 m/s | speed of sound ([1]; a1 = 0.06505): 1488.3 ± 1.2 m/s | speed of sound ([1]; a1 = 0.08726): 1489.8 ± 1.2 m/s | speed of sound ([1]; a1 = 0.1069): 1491 ± 1.2 m/s | speed of sound ([1]; a1 = 0.1285): 1492.5 ± 1.2 m/s | speed of sound ([1]; a1 = 0.148): 1493.7 ± 1.2 m/s | speed of sound ([1]; a1 = 0.1695): 1495.2 ± 1.2 m/s | speed of sound ([1]; a1 = 0.1911): 1496.6 ± 1.2 m/s | mass density ([1]; a1 = 0.0215): 1099.78 ± 0.37 kg/m3 | mass density ([1]; a1 = 0.03236): 1102.1 ± 0.38 kg/m3 | mass density ([1]; a1 = 0.04309): 1104.4 ± 0.38 kg/m3 | mass density ([1]; a1 = 0.05528): 1107.03 ± 0.38 kg/m3 | mass density ([1]; a1 = 0.06505): 1109.14 ± 0.38 kg/m3 | mass density ([1]; a1 = 0.08726): 1113.97 ± 0.38 kg/m3 | mass density ([1]; a1 = 0.1069): 1118.27 ± 0.38 kg/m3 | mass density ([1]; a1 = 0.1285): 1123.03 ± 0.38 kg/m3 | mass density ([1]; a1 = 0.148): 1127.38 ± 0.39 kg/m3 | mass density ([1]; a1 = 0.1695): 1132.18 ± 0.39 kg/m3 | mass density ([1]; a1 = 0.1911): 1137.05 ± 0.39 kg/m3
